# Assay results published in patent publication EP2229935A1, “Peptide derivatives or pharmaceutically acceptable salts thereof, method for producing the same, use of said derivatives and pharmaceutical composition” (Nebolsin, Vladimir Evgenievich, priority 1997, dated 1999).
# Marks after values point to notes of the source that are not given here.
# Legend:
# Male guinea pigs = assay: Antigen-induced bronchospasm in actively sensitized guinea pigs; format: in vivo; conditions: sensitized guinea pigs
# Method: Antiasthmatic effect of the test compounds was studied using an antigen-induced bronchospasm model in actively sensitized guinea pigs according to the Andersson method [Andersson P. Antigen induced bronchial anaphylaxis in actively sensitized guinea pig. Allergy (1980), Vol. 35, pp. 65-71].
# Male guinea pigs were sensitized with intramuscular injection of 0.5 ml suspension comprising 20 micrograms ovalbumin (OVA, manufactured by the Sigma company [grade III]) and 100 mg Al(OH)3 per one animal. Anaphylaxis-provoking dose 150-200 µg/kg OVA in 0.1 ml normal saline was intravenously (v. jugularis) injected on day 26 after sensibilization. Bronchospasm induction and measuring external respiration parameters were carried out according to the method described in Yu-Hong L., Barnes P., Rogers D. Inhibition of neurogenic plasma exudation and bronchoconstriction by a K+ channel activator, BRL 38227, in guinea pig airways in vivo. Europ. J. Pharmacol. (?), Vol. 239, pp.257-259]. Measurement of respiration parameters was performed using a transducer (Ugo Basel, model 7020), connected with a cannula and a recorder (Millichrome), recording breathing amplitude. […] Efficacy of compounds was determined by change in bronchospasm value.
# Inthal was used as a reference drug that was administered to animals at a dose 5 µg/kg according to the same dosage regimen as the test substances were administered. The control group of animals received equivalent amount of normal saline.
# Groups of animals: group 1 - control; group 2 - animals given Inthal; group 3 - animals given oral compound XLIV; group IV - animals given oral compound III; group 5 - animals given intratracheal compound III; group 6 - animals given compound XLIX, group 7 - animals given compound XXXI, group 8 - animals given compound XLVI; group 9 - animals given compound VI, group 10 - animals given compound XLVIII.
# P-450 and B5 cytochromes = assay: Hepatic content of P-450 and B5 cytochromes (microsomal liver fraction); format: in vivo, guinea pigs; conditions: guinea pig liver microsomes; administered three times 72, 48 and 24 hours before
# Method: Change in hepatic monooxygenase system was studied on mongrel male guinea pigs with initial mass 250-300 g; each group included 12 animals. […]. The content of P-450 and […] cytochromes was measured according to the published method [Omura T., Scato R. The monooxide binding pigment of liver microsomes. 11. Solubilization, purification and properties. J. Chem. (1964), Vol. 239, pp. 2379-2385] in microsomal liver fraction, isolated using differential centrifugation method [Ahokas J., Pelkonen O., Karkin N. Charcaterisation of BP-hydroxylase of Trout-liver. Cancer Res. (1977), Vol. 37, pp. 3737-3743]. The priority method {Izotov M.V., Scherbakov V.M., Devichensky V.M. et al. The method of determining the content of P-450 cytochrome isoenzymes in liver microsomes. The inventor's certificate No 1,488,738. B.I. (1989), No 3.-6.06.09, ICI, 01. - No 33/15, No 33/48]. Microsomal protein content was determined using the modified Lowry method [Hartree E. Determination of protein: a modification of the Lowry method, that gives a linear photometric responces. Ann. Biochem. (1972), Vol. 48, pp. 422-427].
# mongrel mice = assay: Acute hypobaric hypoxia model (AHBH); format: in vivo; conditions: oral 4 days; for Effect in percent: lifetime relative to control; for Lifetime under hypoxic conditions (minutes): mice, 170-185 mm Hg
# Method: The tests of determining average lifetime of animals in a closed volume and on the model of acute hypobaric hypoxia at the minimum atmospheric rarefaction (170-185 mm Hg) were used to study antihypoxic activity of the compunds of general formula (I).
# Simulation of AHBH was done in a flow-through chamber at temperature 22°C. Experiments were carried out on mongrel mice with initial body mass 20 g at the minimum rarefaction 170-185 mm Hg, that corresponds to the altitude of 10500-11000 m. Lift rate was 35 m/second. Each group included 15 animals. Compounds were administered orally, lift on to altitude was performed 2 hours after the last administration.
# Groups of animals: • Group 1 - intact control -administration of normal saline four times. • Groups 2 and 3 - administration of the compound III at doses 50 and 500 µg/kg for 4 days. • Group 4 - single administration of sodium oxybutyrate at a dose […].
# [1] = test system: progesterone, 17-oxyprogesterone, 11-desoxycortisol and cortisol; assay: Blood serum hormone levels (radioimmunoassay); format: in vivo, guinea pigs; conditions: for Progesterone, blood serum level (Experiment) / Oxyprogesterone, blood serum level (Experiment) / Desoxycortisol, blood serum level (Experiment) / Cortisol, blood serum level (Experiment): oral three times 50 µg/kg
# Method: Sensibilization of animals was done as described in example 27. Blood for hormonal level determination was sampled in animals before commencement of experiment and 18 hours after the last drug administration from 10 to 11 hours. […] A comparative hormonal state analysis was carried out by individual changes in each animal in a group. Mean parametric values expressed in nM/l, are presented by the groups in table 21.
# Blood serum levels of the hormones progesterone, 17-oxyprogesterone, 11-desoxycortisol and cortisol were determined by radioimmunoassay using the Beloris company kits. Hormone concentration in samples was determined by the relation graph between the activity of a precipitated bound labelled hormone and hormone concentration in the calibration samples.
# [2] = test system: encephalomyocarditis virus; assay: Protection of mice against encephalomyocarditis virus infection; format: in vivo; conditions: 100 LD50 virus, once intraperitoneally 24 hours after infection, 30 µg/kg
# Method: Studies ere carried out on mongrel mice of both sexes with initial body mass 10-11 g. The control and experimental groups included 30 animals each. Compound XLIV and the reference drug interferon inducer Ridostine were administered once intraperitoneally 24 hours after infection of mice with encephalomyocarditis virus at doses 30 µg/kg and 5.0 mg/kg, respectively. Encephalomyocarditis virus was administered at a dose 100 LD50. Antiviral activity was determined by change in mean lifetime (MLT) of mice and by the degree of protection against lethal viral infection.
# [3] = 50 µg/kg per os, 72, 48 and 18 hours prior to bronchospasm induction
molecule,measurement,setting,value
"O=C(O)CCCC(=O)NCCc1c[nH]cn1 [compound III, N-GLUTARYLHISTAMINE]",Bronchospasm (percent of the maximum value),"Male guinea pigs; 50 µg/kg intratracheally, 15 minutes prior to bronchospasm induction",24.6 6.4* percent of the maximum value
same,Bronchospasm (percent of the maximum value),Male guinea pigs; [3],12.0 4.0** percent of the maximum value
same,B5 /P-450,P-450 and B5 cytochromes,0.97*
same,B5 cytochrome nM/mg of protein,P-450 and B5 cytochromes,1.00 ± 0.03 nM/mg of protein
same,P-450B cytochromes nM/mg of protein,P-450 and B5 cytochromes,0.72 ± 0.02 nM/mg of protein
same,P-450B/p-450L,P-450 and B5 cytochromes,2.32**
same,Effect in percent,mongrel mice; 50 µg/kg,"105 ± 3,5%"
same,Effect in percent,mongrel mice; 500 µg/kg,"113 ± 5,2%"
same,Lifetime under hypoxic conditions (minutes),mongrel mice; 50 µg/kg,"322,0 ± 10,9 minutes"
same,Lifetime under hypoxic conditions (minutes),mongrel mice; 500 µg/kg,"345,3 ± 15,9 minutes"
same,hormonal state changes,"[1]; intact and sensitized guinea pigs, compared with compound XLIV",the same hormonal state changes were observed
γ-L-glutamylhistamine [compound XLIV],Bronchospasm (percent of the maximum value),Male guinea pigs; [3],15.6 3.2** percent of the maximum value
same,"MLT, days",[2],12.5* days
same,"Protection degree, percent",[2],17.0%
same,"Survival rate, percent",[2],30.3* percent
same,"Progesterone, blood serum level (Experiment)","[1]; intact guinea pigs, individual control 2.53",2.87 nM/l
same,"Oxyprogesterone, blood serum level (Experiment)","[1]; intact guinea pigs, individual control 2.83",3.88* nM/l
same,"Desoxycortisol, blood serum level (Experiment)","[1]; intact guinea pigs, individual control 20.8",30.95* nM/l
same,"Cortisol, blood serum level (Experiment)","[1]; intact guinea pigs, individual control 1474.5",1891.5* nM/l
same,"Progesterone, blood serum level (Experiment)","[1]; sensitized guinea pigs, individual control 1.73",5.08** nM/l
same,"Oxyprogesterone, blood serum level (Experiment)","[1]; sensitized guinea pigs, individual control 1.79",2.31* nM/l
same,"Desoxycortisol, blood serum level (Experiment)","[1]; sensitized guinea pigs, individual control 28.9",33.5 nM/l
same,"Cortisol, blood serum level (Experiment)","[1]; sensitized guinea pigs, individual control 1910.3",1997.0 nM/l
